In patent US20140206608A1 (priority 2012, published 2014):
≈ marks a conversion by molar mass, not a printed value. Where two headings read alike, the source gives them in different places. *1 amine or outer side, *2 acyl side, *3 side chain or, on linkers, in order; H or OH if unused. Where a SMILES comes first, the peptide text is derived from it. Side-chain parts run from the residue outwards. [ ]: non-standard residue; d: D form. The star is where a group is joined. γGlu = O=C(O)[C@H](CCC(=O)[*:2])N[*:1]; Stearoyl = CCCCCCCCCCCCCCCCCC(=O)*; Aib = CC(C)(N)C(=O)O

What was measured:
[1] = molecular target: human GLP-1 receptor (human) (UniProt P43220); experiment: cell-based or functional assay
[2] = molecular target: T1, human GIP receptor (human) (UniProt P48546); experiment: cell-based or functional assay
T1 sequence (looked up): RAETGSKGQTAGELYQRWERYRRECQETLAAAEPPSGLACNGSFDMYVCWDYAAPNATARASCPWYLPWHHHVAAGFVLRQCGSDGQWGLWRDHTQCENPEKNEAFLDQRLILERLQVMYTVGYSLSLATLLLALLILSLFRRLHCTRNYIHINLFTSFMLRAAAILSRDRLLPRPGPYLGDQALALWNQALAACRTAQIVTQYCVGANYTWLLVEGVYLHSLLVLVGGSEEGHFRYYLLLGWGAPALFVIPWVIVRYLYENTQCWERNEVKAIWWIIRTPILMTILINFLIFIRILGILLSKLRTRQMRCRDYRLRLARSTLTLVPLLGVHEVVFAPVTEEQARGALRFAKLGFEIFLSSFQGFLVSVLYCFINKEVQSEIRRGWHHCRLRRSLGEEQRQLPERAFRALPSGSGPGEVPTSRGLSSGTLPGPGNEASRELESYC

[3] = molecular target: T2, human glucagon receptor (hGLUC R) (Homo sapiens, UniProt P47871); experiment: cAMP response of HEK-293 cells stably expressing human glucagon receptor (HTRF); type: cell-based; conditions: Table 7, cAMP formation
T2 construct: expressed in transfected cells; host or cells: HEK-293
Procedure: (§1) cAMP content of cells was determined using a kit from Cisbio Corp. (cat. no. 62AM4PEC) based on HTRF (Homogenous Time Resolved Fluorescence). For preparation, cells were split into T175 culture flasks and grown overnight to near confluency in medium (DMEM/10% FBS). Medium was then removed and cells washed with PBS lacking calcium and magnesium, followed by proteinase treatment with accutase (Sigma-Aldrich cat. no. A6964). Detached cells were washed and resuspended in assay buffer (1×HBSS; 20 mM HEPES, 0.1% BSA, 2 mM IBMX) and cellular density determined. They were then diluted to 400000 cells/ml and 25 μl-aliquots dispensed into the wells of 96-well plates. For measurement, 25 μl of test compound in assay buffer was added to the wells, followed by incubation for 30 minutes at room temperature.

[4] = molecular target: T3, human GIP receptor (hGIP R) (Homo sapiens, UniProt P48546); experiment: cAMP response of HEK-293 cells stably expressing human GIP receptor (HTRF); type: cell-based
T3 construct: expressed in transfected cells; host or cells: HEK-293
T3 sequence (P48546 22-466): T1 sequence (looked up)
Procedure: as §1

[5] = molecular target: T4, human GLP-1 receptor (hGLP-1 R) (Homo sapiens, UniProt P43220); experiment: cAMP response of HEK-293 cells stably expressing human GLP-1 receptor (HTRF); type: cell-based; conditions: Table 7, cAMP formation
T4 construct: expressed in transfected cells; host or cells: HEK-293
Procedure: as §1

[6] = Chemical stability in solution, 7 days at 25° C. (% remaining peptide); type: physicochemical; conditions: % remaining peptide after 7 days at 25° C., pH 7.4
Text: The chemical stability is expressed as “% remaining peptide”.

[7] = Solubility testing in buffer systems (HPLC-UV); type: physicochemical; conditions: buffer system, target concentration 1.0 mg/mL
[8] = test system: non-fasted female diabetic dbdb-mice; experiment: Glucose lowering in non-fasted female diabetic dbdb-mice; type: in vivo; conditions: 3 μg/kg s.c.
Text: Female diabetic dbdb-mice of mean non-fasted glucose value of 20-22 mmol/l and a body weight of 42 g+/−0.6 g (SEM) were used. Mice were individually marked and were adapted to housing conditions for at least one week.
3-5 days prior to study start mice were assigned to groups and cages (4 mice per cage, 8 per group) according to their non-fasted glucose values to ensure even distribution of lower and higher values between groups (stratification). On the study day, mice were weighed and dosed (t=0). Immediately prior to compound administration feed was removed while water remained available, and a first blood sample at a tail incision was drawn (baseline). Further blood samples were drawn at the tail incision at 30, 60, 90, 120, 240, 360, and 480 min.
Statistical analyses are performed with Everstat Version 6.0 based on SAS by 2-way-ANOVA on repeated measures, followed by Dunnett's post-hoc test against vehicle-control. Differences are considered statistically significant at the p<0.05 level.
Female dbdb-mice, received 3 μg/kg of SEQ ID NO: 13 or phosphate buffered saline (vehicle control) subcutaneously, at time 0 min.

T2 sequence (P47871 26-477): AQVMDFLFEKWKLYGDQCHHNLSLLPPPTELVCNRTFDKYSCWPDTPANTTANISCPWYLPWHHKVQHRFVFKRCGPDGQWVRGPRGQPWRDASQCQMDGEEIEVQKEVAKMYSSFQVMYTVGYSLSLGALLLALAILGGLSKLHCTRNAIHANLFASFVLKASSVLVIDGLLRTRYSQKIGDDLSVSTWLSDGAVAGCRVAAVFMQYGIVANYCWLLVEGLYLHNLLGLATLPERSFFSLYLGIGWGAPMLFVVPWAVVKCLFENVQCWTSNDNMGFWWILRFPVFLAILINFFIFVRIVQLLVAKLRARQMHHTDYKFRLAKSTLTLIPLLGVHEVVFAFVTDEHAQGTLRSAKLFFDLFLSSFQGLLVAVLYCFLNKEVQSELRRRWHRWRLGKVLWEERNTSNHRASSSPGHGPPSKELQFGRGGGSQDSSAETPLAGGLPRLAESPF
T4 sequence (P43220 24-463): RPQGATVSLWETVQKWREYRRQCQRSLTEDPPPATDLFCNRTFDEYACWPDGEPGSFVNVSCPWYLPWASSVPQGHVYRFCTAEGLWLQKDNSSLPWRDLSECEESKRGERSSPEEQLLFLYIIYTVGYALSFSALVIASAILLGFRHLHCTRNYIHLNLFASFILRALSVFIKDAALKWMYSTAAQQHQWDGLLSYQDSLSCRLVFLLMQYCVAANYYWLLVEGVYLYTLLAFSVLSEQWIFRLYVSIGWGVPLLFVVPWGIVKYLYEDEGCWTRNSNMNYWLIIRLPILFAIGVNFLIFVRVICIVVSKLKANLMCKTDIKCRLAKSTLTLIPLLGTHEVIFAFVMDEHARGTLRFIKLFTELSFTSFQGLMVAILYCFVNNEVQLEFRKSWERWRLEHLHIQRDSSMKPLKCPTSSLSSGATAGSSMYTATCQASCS
human GLP-1 receptor (human), sequence (P43220 24-463): as above

Tyr(1)Ile(12)-exendin-4 (peptide)
EC50 hGLP-1 R [pM] (formed cAMP) [1]: 1.3 pM
EC50 hGIP R [pM] (formed cAMP) [2]: 93.9 pM

CCCCCCCCCCCCCCCCCC(=O)N[C@@H](CCC(=O)NCCCC[C@H](NC(=O)[C@H](CCC(N)=O)NC(=O)[C@@H](NC(=O)[C@H](CO)NC(=O)[C@H](CC(C)C)NC(=O)[C@H](CC(=O)O)NC(=O)[C@H](CO)NC(=O)[C@@H](NC(=O)[C@H](Cc1ccccc1)NC(=O)[C@@H](NC(=O)CNC(=O)[C@H](CCC(=O)O)NC(=O)C(C)(C)NC(=O)[C@@H](N)Cc1ccc(O)cc1)[C@@H](C)O)[C@@H](C)O)[C@@H](C)CC)C(=O)N[C@@H](CCC(=O)O)C(=O)N[C@@H](CCC(=O)O)C(=O)N[C@@H](CCC(=O)O)C(=O)N[C@@H](C)C(=O)N[C@H](C(=O)N[C@@H](CCCNC(=N)N)C(=O)N[C@@H](CC(C)C)C(=O)N[C@@H](Cc1ccccc1)C(=O)N[C@H](C(=O)N[C@@H](CCC(=O)O)C(=O)N[C@@H](Cc1c[nH]c2ccccc12)C(=O)N[C@@H](CC(C)C)C(=O)N[C@@H](CCCCN)C(=O)NC(C)(C)C(=O)NCC(=O)NCC(=O)N1CCC[C@H]1C(=O)N[C@@H](CO)C(=O)N[C@@H](CO)C(=O)NCC(=O)N[C@@H](C)C(=O)N1CCC[C@H]1C(=O)N1CCC[C@H]1C(=O)N1CCC[C@H]1C(=O)N[C@@H](CO)C(N)=O)[C@@H](C)CC)C(C)C)C(=O)O [SEQ ID NO: 9, Y-Aib-E-G-T-F-T-S-D-L-S-I-Q-K(γE-x70)-E-E-E-A-V-R-L-F-I-E-W-L-K-Aib-G-G-P-S-S-G-A-P-P-P-S-NH2]
EC50 ([3]; EC50 hGLUC R): 164 nM
EC50 [4]: 0.0146 nM
EC50 ([5]; EC50 hGLP-1 R): 0.0267 nM

CCCCCCCCCCCCCCCCCC(=O)N[C@@H](CCC(=O)NCCCC[C@H](NC(=O)[C@H](CCC(N)=O)NC(=O)[C@@H](NC(=O)[C@H](CO)NC(=O)[C@H](CC(C)C)NC(=O)[C@H](CC(=O)O)NC(=O)[C@H](CO)NC(=O)[C@@H](NC(=O)[C@H](Cc1ccccc1)NC(=O)[C@@H](NC(=O)CNC(=O)[C@H](CCC(=O)O)NC(=O)C(C)(C)NC(=O)[C@@H](N)Cc1ccc(O)cc1)[C@@H](C)O)[C@@H](C)O)[C@@H](C)CC)C(=O)N[C@@H](CCC(=O)O)C(=O)N[C@@H](CCCCN)C(=O)N[C@@H](CCC(=O)O)C(=O)N[C@@H](C)C(=O)N[C@H](C(=O)N[C@@H](CCCNC(=N)N)C(=O)N[C@@H](CC(C)C)C(=O)N[C@@H](Cc1ccccc1)C(=O)N[C@H](C(=O)N[C@@H](CCC(=O)O)C(=O)N[C@@H](Cc1c[nH]c2ccccc12)C(=O)N[C@@H](CC(C)C)C(=O)N[C@@H](CCCCN)C(=O)N[C@@H](C)C(=O)NCC(=O)NCC(=O)N1CCC[C@H]1C(=O)N[C@@H](CO)C(=O)N[C@@H](CO)C(=O)NCC(=O)N[C@@H](C)C(=O)N1CCC[C@H]1C(=O)N1CCC[C@H]1C(=O)N1CCC[C@H]1C(=O)N[C@@H](CO)C(N)=O)[C@@H](C)CC)C(C)C)C(=O)O [SEQ ID NO: 13, Y-Aib-E-G-T-F-T-S-D-L-S-I-Q-K(γE-x70)-EKEAVRLFIEWLKAGGPSSGAPPPS-NH2] (H-Y[Aib]EGTFTSDLSIQK([γGlu-Stearoyl])EKEAVRLFIEWLKAGGPSSGAPPPS-NH2)
EC50 ([3]; read-out: EC50 hGLUC R): 200 nM
Stability (pH 7.4) [6]: 84.0%
EC50 ([4]; Table 7, cAMP formation, read-out: EC50 hGIP R): 0.0168 nM
solubility at 2 h ([7]; pH 4.5, read-out: Solubility (pH 4.5)): 688 µg/mL (≈ 150 µM)
solubility at 2 h ([7]; pH 7.4, read-out: Solubility (pH 7.4)): 824 µg/mL (≈ 180 µM)
EC50 ([5]; read-out: EC50 hGLP-1 R): 0.0212 nM
maximal effect, glucose reduction ([8]; at 240 min, kept to 480 min, baseline 20-22 mmol/l): ~12 mmol/L
reduction of glucose compared to vehicle control ([8]; from t=90 min until end of observation, p<0.05): statistical significant reduction of glucose
